Measured values taken from patent US12091402B2 (Avilar Therapeutics, Inc., priority 2021, dated 2024).
Like-named read-outs stand apart in the source and are kept apart here.

Key:
[1] = biological target: T1, ASGPR receptor on the cell surface (HepG2 cells) (Homo sapiens, UniProt P07306); test: Ternary complex formation assay (flow cytometry, HepG2); assay type: cell-based
T1 construct: host or cells: HepG2
T1 sequence (P07306 1-291): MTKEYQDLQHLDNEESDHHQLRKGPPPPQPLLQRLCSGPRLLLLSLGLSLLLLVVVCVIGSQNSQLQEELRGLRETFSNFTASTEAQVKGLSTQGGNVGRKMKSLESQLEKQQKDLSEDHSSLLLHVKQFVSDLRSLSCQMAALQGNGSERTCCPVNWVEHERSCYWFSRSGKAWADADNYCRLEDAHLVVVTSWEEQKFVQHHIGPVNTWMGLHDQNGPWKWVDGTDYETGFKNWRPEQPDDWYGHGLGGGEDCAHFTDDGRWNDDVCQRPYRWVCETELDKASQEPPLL
T1 sequence (P07307 1-311 partner): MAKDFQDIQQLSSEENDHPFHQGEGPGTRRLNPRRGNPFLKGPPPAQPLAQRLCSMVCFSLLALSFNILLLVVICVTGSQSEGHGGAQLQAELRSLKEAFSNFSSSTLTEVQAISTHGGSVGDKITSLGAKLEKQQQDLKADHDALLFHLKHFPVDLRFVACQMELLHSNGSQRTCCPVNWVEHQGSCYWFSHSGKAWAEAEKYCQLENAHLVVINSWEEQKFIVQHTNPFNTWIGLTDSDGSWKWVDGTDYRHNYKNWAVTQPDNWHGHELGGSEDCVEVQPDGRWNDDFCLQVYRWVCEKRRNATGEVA
Description: The ternary complex formation assay is designed to identify the concentration of Degrader required to form a complex between the degrader, a constant concentration of fluorescently-labeled antibody and the ASGPR receptor on the cell surface. The peak mean fluorescence intensity (MFI) occurs at the optimal degrader concentration for ternary complex formation. Sub-optimal concentrations of degrader (too much or too little) results in fewer complexes formed and a reduced […].
Human IgG (Sigma-Aldrich, 14506) was covalently labeled with Alexa Fluor 488 using the Alexa Fluor™ 488 Protein Labeling Kit (Thermo Fisher, A10235) following the manufacturer's instructions. HepG2 cells (ATCC, HIB-8065) were cultured to about 70% confluence and harvested by trypsinization. Single cell suspensions of HepG2 cells were plated in 96 well plates at 1×10^5 cells/well in cell culture media (DMEM supplemented with […]) and placed at 4° C. For studies using human IgG, cells were incubated with 100 nM AF488-labeled anti-human IgG and serial dilutions of IgG-based degrader for 1 hour at 4° C. For studies using DNP, cells were incubated with 100 nM AF488-labeled polyclonal rabbit anti-dinitrophenyl (DNP) antibodies (ThermoFisher) and serial dilutions of DNP-based degrader for 1 hour at 4° C. After washing once with ice-cold PBS containing 0.1% BSA and 0.1% sodium azide, cells were resuspended in 150 uL PBS+0.1% BSA and cell-associated AF488 fluorescence was measured by flow cytometry using the iQue® Screener PLUS Flow Cytometer (IntelliCyt).

HepG2 cells = test: Cellular uptake assay of AF488-labeled antibody (HepG2); assay type: cell-based; settings: HepG2 cells
Procedure: The cellular uptake assay is designed to measure compound-mediated cellular uptake of fluorescently labeled antibody following ternary complex formation with the ASGPR receptor and endocytosis of the entire complex into cells.
Human IgG (Sigma-Aldrich, 14506) was covalently labeled with Alexa Fluor 488 using the Alexa Fluor™ 488 Protein Labeling Kit (Thermo Fisher, A10235) following the manufacturer's instructions. HepG2 cells were plated in DMEM supplemented with 10% FBS at 5,000 cells per well in a 96-well microtiter plate and incubated for approximately 18 hours at 37° C./5% CO2. For studies using human IgG, 100 nM AF488-labeled human IgG antibodies and serial dilutions of IgG-based degrader (0.1% DMSO final concentration) were added to the cells and the mixture was incubated at 37° C. for 6 hours. For studies using DNP, 100 nM AF488-labeled DNP antibodies and serial dilutions of DNP-based degrader (0.1% DMSO final concentration) were added to the cells and the mixture was incubated at 37° C. for 6 hours. HepG2 cells were fixed in 100% methanol at −20° C. for 20 min, washed 3× with PBS, then stained with DAPI (Thermo, Cat #H3570). HepG2 cells were imaged for DAPI and Alexa Fluor 488 using the Operetta CLS, high-content analysis system (PerkinElmer). Data is presented as the ratio of the number of cells positive for hIgG or DNP (AF-488 fluorescence) over the total cell number (measured by DAPI).

IgG = test: Affinity to IgG by surface plasmon resonance (SPR); assay type: binding
Procedure: Immobilization levels ranging from 1000-1300 resonance units (RU) are obtained. The running buffer is 10 mM HEPES, pH 7.4, 400 mM NaCl, 0.005% P20, […].

ASGPR = biological target: T2, ASGPR (Homo sapiens, UniProt P07306); test: Affinity to ASGPR by surface plasmon resonance (SPR)
T2 sequence (P07306 1-291): T1 sequence (P07306 1-291)

[2] = 100 nM AF488-labeled antibody, 37° C. for 6 hours, class symbols, read-out: Uptake Assay EC50

Compound	EC50 [1]	EC50 (HepG2 cells; [2])	EC50 (HepG2 cells; read-out: Uptake EC50)	other results
CC(C)C[C@@H]1NC(=O)[C@H](Cc2c[nH]cn2)NC(=O)[C@H](Cc2c[nH]c3ccccc23)NC(=O)[C@H](C)NC(=O)[C@@H]2CSSC[C@H](NC(=O)[C@H](Cc3c[nH]c4ccccc34)NC(=O)[C@H](C(C)C)NC(=O)[C@H](CC(C)C)NC(=O)[C@H](CCC(=O)O)NC(=O)CNC1=O)C(=O)N[C@@H]([C@@H](C)O)C(=O)N1CCC[C@@H]1C(=O)N1C[C@@H](NC(=O)COCC(=O)NC(COCCC(=O)NCCOCCOCCOCCOC[C@H]3OC[C@H](Nc4cncc(C(F)(F)F)n4)[C@@H](O)[C@H]3O)COCCC(=O)NCCOCCOCCOCCOC[C@H]3OC[C@H](Nc4cncc(C(F)(F)F)n4)[C@@H](O)[C@H]3O)C[C@H]1C(=O)N[C@@H](CC(=O)O)C(=O)N2 [Compound 43]	< 0.1 µM	< 0.1 µM	–	–
O=C(CCOCC(COCCC(=O)NCCOCCOCCOCCOC[C@@]12CO[C@@H](O1)[C@H](NC(=O)C(F)(F)F)[C@@H](O)[C@H]2O)NC(=O)COCCOCCOCCNc1ccccc1)NCCOCCOCCOCCOC[C@@]12CO[C@@H](O1)[C@H](NC(=O)C(F)(F)F)[C@@H](O)[C@H]2O [A12, 3,3′-((2-(2-(2-(2-(2-(phenylamino)ethoxy)ethoxy)ethoxy)acetamido)propane-1,3-diyl)bis(oxy))bis(N-(1-((1S,2R,3R,4R,5S)-2,3-dihydroxy-4-(2,2,2-trifluoroacetamido)-6,8-dioxabicyclo[3.2.1]octan-1-yl)-2,5,8,11-tetraoxatridecan-13-yl)propanamide)]	–	–	–	EC50 ([1]; HepG2 cells, 100 nM AF488-labeled antibody, 1 hour at 4° C., numeric bounds, read-out: Ternary Complex EC50): > 10 µM
CC(C)C[C@@H]1NC(=O)[C@H](Cc2c[nH]cn2)NC(=O)[C@H](Cc2c[nH]c3ccccc23)NC(=O)[C@H](C)NC(=O)[C@@H]2CSSC[C@H](NC(=O)[C@H](Cc3c[nH]c4ccccc34)NC(=O)[C@H](C(C)C)NC(=O)[C@H](CC(C)C)NC(=O)[C@H](CCC(=O)O)NC(=O)CNC1=O)C(=O)N[C@@H]([C@@H](C)O)C(=O)N1CCC[C@@H]1C(=O)N1C[C@H](NC(=O)c3ccc(N4CCC(CN5CCN(C[C@H]6OC[C@H](Nc7cncc(C(F)(F)F)n7)[C@@H](O)[C@H]6O)CC5)CC4)cc3)C[C@H]1C(=O)N[C@@H](CC(=O)O)C(=O)N2 [Compound 93]	< 0.1 µM	–	< 0.1 µM	–
CC(C)C[C@@H]1NC(=O)[C@H](Cc2c[nH]cn2)NC(=O)[C@H](Cc2c[nH]c3ccccc23)NC(=O)[C@H](C)NC(=O)[C@@H](NC(=O)[C@@H](N)CC(=O)O)CSSC[C@@H](C(=O)N[C@H](C(N)=O)[C@@H](C)O)NC(=O)[C@H](Cc2c[nH]c3ccccc23)NC(=O)[C@H](C(C)C)NC(=O)[C@H](CC(C)C)NC(=O)[C@H](CCC(=O)NCCOCCOCCOCCOCCNC(=O)CCCc2cn(CCCCCC(=O)NC(COCCC(=O)NCCOCCOCCOCCOC[C@@]34CO[C@@H](O3)[C@H](Nc3nc(Cl)ns3)[C@@H](O)[C@H]4O)COCCC(=O)NCCOCCOCCOCCOC[C@@]34CO[C@@H](O3)[C@H](Nc3nc(Cl)ns3)[C@@H](O)[C@H]4O)nn2)NC(=O)CNC1=O [Compound 3]	< 0.1 µM	0.5 to 1 µM	< 0.1 µM	EC50 ([1]; read-out: Ternary Complex EC50): < 0.1 µM
CC(C)C[C@@H]1NC(=O)[C@H](Cc2c[nH]cn2)NC(=O)[C@H](Cc2c[nH]c3ccccc23)NC(=O)[C@H](C)NC(=O)[C@@H]2CSSC[C@H](NC(=O)[C@H](Cc3c[nH]c4ccccc34)NC(=O)[C@H](C(C)C)NC(=O)[C@H](CC(C)C)NC(=O)[C@H](CCC(=O)O)NC(=O)CNC1=O)C(=O)N[C@@H]([C@@H](C)O)C(=O)N1CCC[C@@H]1C(=O)N1C[C@@H](NC(=O)COCC(=O)NC(COCCC(=O)NCCOCCOCCOCCOC[C@H]3OC[C@H](Nc4nccc(C(F)(F)F)n4)[C@@H](O)[C@H]3O)COCCC(=O)NCCOCCOCCOCCOC[C@H]3OC[C@H](Nc4nccc(C(F)(F)F)n4)[C@@H](O)[C@H]3O)C[C@H]1C(=O)N[C@@H](CC(=O)O)C(=O)N2 [Compound 46]	< 0.1 µM	< 0.1 µM	–	–
CC(C)C[C@@H]1NC(=O)[C@H](Cc2c[nH]cn2)NC(=O)[C@H](Cc2c[nH]c3ccccc23)NC(=O)[C@H](C)NC(=O)[C@@H]2CSSC[C@H](NC(=O)[C@H](Cc3c[nH]c4ccccc34)NC(=O)[C@H](C(C)C)NC(=O)[C@H](CC(C)C)NC(=O)[C@H](CCC(=O)O)NC(=O)CNC1=O)C(=O)N[C@@H]([C@@H](C)O)C(=O)N1CCC[C@@H]1C(=O)N1C[C@@H](NC(=O)CNC(COCCC(=O)NCCOCCOCCOCCOC[C@H]3OC[C@H](Nc4cncc(C(F)(F)F)n4)[C@@H](O)[C@H]3O)COCCC(=O)NCCOCCOCCOCCOC[C@H]3OC[C@H](Nc4cncc(C(F)(F)F)n4)[C@@H](O)[C@H]3O)C[C@H]1C(=O)N[C@@H](CC(=O)O)C(=O)N2 [Compound 74]	–	–	< 0.1 µM	Kd (IgG; SPR, read-out: IgG KD): < 0.1 µM
CC(C)C[C@@H]1NC(=O)[C@H](Cc2cnc[nH]2)NC(=O)[C@H](Cc2c[nH]c3ccccc23)NC(=O)[C@H](C)NC(=O)[C@@H]2CSSC[C@H](NC(=O)[C@H](Cc3c[nH]c4ccccc34)NC(=O)[C@H](C(C)C)NC(=O)[C@H](CC(C)C)NC(=O)[C@H](CCC(=O)O)NC(=O)CNC1=O)C(=O)N[C@@H]([C@@H](C)O)C(=O)N1CCC[C@@H]1C(=O)N1C[C@@H](NC(=O)COCCOCCOCCOC[C@H]3OC[C@H](Nc4nccc(C(F)(F)F)n4)[C@@H](O)[C@H]3O)C[C@H]1C(=O)N[C@@H](CC(=O)O)C(=O)N2 [Compound 60]	–	–	–	EC50 ([1]; HepG2 cells, 100 nM AF488-labeled antibody, 1 hour at 4° C., class symbols, read-out: Ternary Complex EC50): < 0.1 µM; Kd (IgG; Biacore 8K, 25° C., IgG on CM5 chip, read-out: IgG SPR Binding Kd): < 0.1 µM
CC(C)C[C@@H]1NC(=O)[C@H](Cc2c[nH]cn2)NC(=O)[C@H](Cc2c[nH]c3ccccc23)NC(=O)[C@H](C)NC(=O)[C@@H]2CSSC[C@H](NC(=O)[C@H](Cc3c[nH]c4ccccc34)NC(=O)[C@H](C(C)C)NC(=O)[C@H](CC(C)C)NC(=O)[C@H](CCC(=O)O)NC(=O)CNC1=O)C(=O)N[C@@H]([C@@H](C)O)C(=O)N1CCC[C@@H]1C(=O)N1C[C@@H](NC(=O)CCOCCOCCOCCOCCNC(=O)CCCc3cn(CCCCCC(=O)NC(COCCC(=O)NCCOCCOCCOCCOC[C@H]4OC[C@H](Nc5nccc(C(F)(F)F)n5)[C@@H](O)[C@H]4O)(COCCC(=O)NCCOCCOCCOCCOC[C@H]4OC[C@H](Nc5nccc(C(F)(F)F)n5)[C@@H](O)[C@H]4O)COCCC(=O)NCCOCCOCCOCCOC[C@H]4OC[C@H](Nc5nccc(C(F)(F)F)n5)[C@@H](O)[C@H]4O)nn3)C[C@H]1C(=O)N[C@@H](CC(=O)O)C(=O)N2 [Compound 86]	–	–	–	EC50 ([1]; HepG2 cells, ternary complex formation, read-out: TCF EC50): < 0.1 µM; Kd (ASGPR): < 0.1 µM
